This is an account of results in patent publication US20230365589A1, “NOVEL AMINE DERIVATIVES” (Sumitomo Pharma Co., Ltd., priority 2020, published 2023).

Read-outs that look alike come from different tables or passages of the source. Some results are limits rather than exact numbers.

Holding throughout (format): biochemical
One test addresses T1, DYRK1A (Homo sapiens, UniProt Q13627).
T1 construct: purchased Carna Biosciences, Inc. 04-130
Description: Inhibition test on activity of DYRK family, mobility shift assay (MSA): DYRK1A. In outline:
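Mobility shift assay with recombinant DYRK1A (0.2 ng/μL enzyme solution), FITC-DYRKtide substrate (4 μM in substrate mix), 100 μM ATP in substrate mix, HEPES pH 7.5 buffer with MgCl2; 1 h at room temperature. Phosphorylated vs unphosphorylated peptide peaks quantified; IC50 from regression of inhibition rate against log concentration.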

In a further test the target is T2, DYRK2 (Homo sapiens, UniProt Q92630).
T2 construct: purchased Carna Biosciences, Inc. 04-132
T2 sequence (Q92630 74-601 limits assumed): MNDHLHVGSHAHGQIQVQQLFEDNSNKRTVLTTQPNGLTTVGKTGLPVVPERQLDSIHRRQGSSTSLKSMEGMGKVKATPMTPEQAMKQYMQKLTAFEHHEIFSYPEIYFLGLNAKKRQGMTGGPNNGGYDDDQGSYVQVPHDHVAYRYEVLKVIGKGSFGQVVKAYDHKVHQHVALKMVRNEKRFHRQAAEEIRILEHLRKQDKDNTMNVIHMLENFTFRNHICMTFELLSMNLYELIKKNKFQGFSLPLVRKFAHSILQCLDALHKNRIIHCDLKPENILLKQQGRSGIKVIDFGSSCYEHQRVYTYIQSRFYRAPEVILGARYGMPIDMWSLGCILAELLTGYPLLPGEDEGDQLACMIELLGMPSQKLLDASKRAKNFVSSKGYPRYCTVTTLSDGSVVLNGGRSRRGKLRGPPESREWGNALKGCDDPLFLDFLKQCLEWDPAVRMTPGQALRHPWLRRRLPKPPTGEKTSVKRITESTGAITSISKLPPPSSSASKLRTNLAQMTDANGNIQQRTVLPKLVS
Description: Inhibition test on activity of DYRK family, mobility shift assay (MSA): DYRK2. Summed up: (§1)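 Mobility-shift readout of FITC-DYRKtide phosphorylation in 20 mM HEPES pH 7.5. The substrate mix held 4 µM peptide, 20 mM MgCl2 and ATP at 100 (1A), 200 (1B), 40 (2) or 20 µM (3). Reaction 1 h at room temperature; IC50 from regression of P/(P+S)-based inhibition vs log concentration.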

Another test addresses T3, DYRK3 (Homo sapiens, UniProt O43781).
T3 construct: purchased Carna Biosciences, Inc. 04-133
T3 sequence (O43781 1-568 isoform O43781-2): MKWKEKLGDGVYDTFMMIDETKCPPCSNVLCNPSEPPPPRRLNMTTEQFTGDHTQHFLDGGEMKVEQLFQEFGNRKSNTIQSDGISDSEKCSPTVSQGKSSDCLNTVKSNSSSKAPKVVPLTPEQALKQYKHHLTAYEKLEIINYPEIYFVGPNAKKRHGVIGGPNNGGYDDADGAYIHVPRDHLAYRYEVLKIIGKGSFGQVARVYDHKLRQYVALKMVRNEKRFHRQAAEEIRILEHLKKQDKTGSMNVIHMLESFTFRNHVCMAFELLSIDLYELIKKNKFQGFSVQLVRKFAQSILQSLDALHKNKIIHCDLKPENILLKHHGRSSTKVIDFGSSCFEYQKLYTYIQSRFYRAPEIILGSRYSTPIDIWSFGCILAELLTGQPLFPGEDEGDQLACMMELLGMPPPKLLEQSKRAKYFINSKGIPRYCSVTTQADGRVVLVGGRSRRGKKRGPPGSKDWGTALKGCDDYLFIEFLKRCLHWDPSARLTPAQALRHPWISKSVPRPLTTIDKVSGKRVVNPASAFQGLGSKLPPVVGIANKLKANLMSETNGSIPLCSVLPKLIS
Description: Inhibition test on activity of DYRK family, mobility shift assay (MSA): DYRK3. In outline: as §1

Setting [1] is: read-out: Inhibitory activity DYRK 1A.
Setting [2] is: read-out: Inhibitory activity DYRK 2.
The mark [3] stands for this setting: read-out: Inhibitory activity DYRK 3.
Setting [4] is: MSA, FITC-labeled DYRKtide peptide, ATP 100 μM, read-out: Inhibitory activity DYRK 1A (IC50 class).
Where [5] appears, read: MSA, FITC-labeled DYRKtide peptide, ATP 40 μM, read-out: Inhibitory activity DYRK 2 (IC50 class).
Setting [6] is: MSA, FITC-labeled DYRKtide peptide, ATP 20 μM, read-out: Inhibitory activity DYRK 3 (IC50 class).

As for `O=C1N[C@H]2CN(C3CC3)C[C@H]2N1c1nc2c3c(ccc2s1)OCC3` [Example 101], the IC50 was 10 to 100 nM at DYRK1A (setting [1]), not below 1000 nM on DYRK2 (setting [2]) and not below 1000 nM on DYRK3 (setting [3]).
In the case of `C[C@@H]1NC(=O)N(c2nc3c4c(ccc3s2)OCC4)[C@@H]1CN1CC[C@H](F)C1` [Example 115, (4S,5R)-1-(7,8-dihydrofuro[3,2-e][1,3]benzothiazol-2-yl)-5-{[(3S)-3-fluoropyrrolidin-1-yl]methyl}-4-methylimidazolidin-2-one], the results for the IC50 at DYRK1A (setting [1]), on DYRK2 (setting [2]) and on DYRK3 (setting [3]) were 10 to 100 nM, 100 to 1000 nM and not below 1000 nM, respectively.
Take `C[C@@H]1NC(=O)N(c2nc3c4c(ccc3s2)OCC4)[C@@H]1CN1CC(F)(F)C1` [Example 116, (4S,5R)-5-[(3,3-difluoroazetidin-1-yl)methyl]-1-(7,8-dihydrofuro[3,2-e][1,3]benzothiazol-2-yl)-4-methylimidazolidin-2-one]: the results for the IC50 on DYRK1A (setting [1]), on DYRK2 (setting [2]) and on DYRK3 (setting [3]) were 10 to 100 nM, not below 1000 nM and not below 1000 nM, respectively.
On to `C[C@@H]1NC(=O)N(c2nc3c4c(ccc3s2)OCC4)[C@@H]1CN1CCC(F)(F)C1` [Example 117, (4S,5R)-5-[(3,3-difluoropyrrolidin-1-yl)methyl]-1-(7,8-dihydrofuro[3,2-e][1,3]benzothiazol-2-yl)-4-methylimidazolidin-2-one], for which the results for the IC50 at DYRK1A (setting [1]), at DYRK2 (setting [2]) and on DYRK3 (setting [3]) were 10 to 100 nM, not below 1000 nM and not below 1000 nM, respectively.
Regarding `C[C@@H]1NC(=O)N(c2nc3c4c(ccc3s2)OCC4)[C@@H]1CN1CC(F)C1` [Example 118, (4S,5R)-1-(7,8-dihydrofuro[3,2-e][1,3]benzothiazol-2-yl)-5-[(3-fluoroazetidin-1-yl)methyl]-4-methylimidazolidin-2-one], the IC50 at DYRK1A (setting [1]) is 10 to 100 nM; on DYRK2 (setting [2]), not below 1000 nM; on DYRK3 (setting [3]), not below 1000 nM.
`CC1(C)C[C@H]2[C@@H](CO1)NC(=O)N2c1nc2c3c(ccc2s1)OCC3` [Example 123]: the IC50 on DYRK1A (setting [1]), on DYRK2 (setting [2]) and on DYRK3 (setting [3]) was not below 1000 nM each time.
`CC1(C)C[C@@H]2[C@H](CO1)NC(=O)N2c1nc2c3c(ccc2s1)OCC3` [Example 124, (3aR,7aR)-1-(7,8-dihydrofuro[3,2-e][1,3]benzothiazol-2-yl)-6,6-dimethylhexahydropyrano[3,4-d]imidazol-2(3H)-one]: the IC50 was less than 10 nM on DYRK1A (setting [1]), 100 to 1000 nM on DYRK2 (setting [2]) and 100 to 1000 nM on DYRK3 (setting [3]).
Consider `O=C1N[C@@H]2CCOC[C@H]2N1c1nc2c3c(ccc2s1)OCC3` [Example 125], for which the IC50 at DYRK1A (setting [1]) fell in the range of 10 to 100 nM; at DYRK2 (setting [2]), 100 to 1000 nM; at DYRK3 (setting [3]) it was 100 to 1000 nM.
Turning to `O=C1N[C@@H]2COCC[C@H]2N1c1nc2c3c(ccc2s1)OCC3` [Example 126], the IC50 at DYRK1A (setting [1]), on DYRK2 (setting [2]) and at DYRK3 (setting [3]) was 100 to 1000 nM each time.
On to `N#C[C@H]1C[C@@H]2[C@H](CO1)NC(=O)N2c1nc2c3c(ccc2s1)OCC3` [Example 127, (3aR,6R,7aR)-1-(7,8-dihydrofuro[3,2-e][1,3]benzothiazol-2-yl)-2-oxooctahydropyrano[3,4-d]imidazole-6-carbonitrile], for which the IC50 on DYRK1A (setting [1]) is less than 10 nM; on DYRK2 (setting [2]), 100 to 1000 nM; on DYRK3 (setting [3]), 100 to 1000 nM.
In the case of `N#C[C@H]1C[C@H]2NC(=O)N(c3nc4c5c(ccc4s3)OCC5)[C@H]2CO1` [Example 128], the IC50 at DYRK1A (setting [1]), at DYRK2 (setting [2]) and on DYRK3 (setting [3]) was not below 1000 nM each time.
In the case of `CO[C@H]1C[C@@H]2[C@H](CO1)NC(=O)N2c1nc2c3c(ccc2s1)OCC3` [Example 129, (3aR,6R,7aR)-1-(7,8-dihydrofuro[3,2-e][1,3]benzothiazol-2-yl)-6-methoxyhexahydropyrano[3,4-d]imidazol-2(3H)-one], the values for the IC50 on DYRK1A (setting [1]), on DYRK2 (setting [2]) and on DYRK3 (setting [3]) were 10 to 100 nM, 100 to 1000 nM and 100 to 1000 nM, respectively.
As to `CO[C@H]1C[C@H]2NC(=O)N(c3nc4c5c(ccc4s3)OCC5)[C@H]2CO1` [Example 130], the IC50 on DYRK1A (setting [1]) was 100 to 1000 nM; at DYRK2 (setting [2]), not below 1000 nM; on DYRK3 (setting [3]), not below 1000 nM.
Consider `N#C[C@H]1C[C@@H]2[C@H](CO1)NC(=O)N2c1nc2c3c(ccc2s1)OCO3` [Example 131, (3aR,6R,7aR)-1-(2H-[1,3]dioxolo[4,5-e][1,3]benzothiazol-7-yl)-2-oxooctahydropyrano[3,4-d]imidazole-6-carbonitrile], for which the IC50 at DYRK1A (setting [1]) is less than 10 nM; at DYRK2 (setting [2]), 100 to 1000 nM; at DYRK3 (setting [3]), 100 to 1000 nM.
Regarding `N#C[C@H]1C[C@H]2NC(=O)N(c3nc4c5c(ccc4s3)OCO5)[C@H]2CO1` [Example 132], the IC50 at DYRK1A (setting [1]), on DYRK2 (setting [2]) and at DYRK3 (setting [3]) was not below 1000 nM each time.
For the molecule `N#C[C@H]1C[C@@H]2[C@H](CO1)NC(=O)N2c1nc2c3c(ccc2s1)OCCO3` [Example 133, (3aR,6R,7aR)-1-(7,8-dihydro[1,4]dioxino[2,3-e][1,3]benzothiazol-2-yl)-2-oxooctahydropyrano[3,4-d]imidazole-6-carbonitrile], the values for the IC50 at DYRK1A (setting [4]), on DYRK2 (setting [5]) and on DYRK3 (setting [6]) were less than 10 nM, 100 to 1000 nM and 100 to 1000 nM, respectively.
Turning to `C[C@H]1C[C@H]2NC(=O)N(c3nc4c5c(ccc4s3)OCC5)[C@H]2CO1` [Example 134], the IC50 is 100 to 1000 nM at DYRK1A (setting [4]), not below 1000 nM at DYRK2 (setting [5]) and not below 1000 nM at DYRK3 (setting [6]).
Regarding `O=C1N[C@H]2COCCC[C@H]2N1c1nc2c3c(ccc2s1)OCCO3` [Example 135, (3aR,8aR)-1-(7,8-dihydro[1,4]dioxino[2,3-e][1,3]benzothiazol-2-yl)hexahydro-1H-oxepino[3,4-d]imidazol-2(3H)-one], the IC50 at DYRK1A (setting [4]) lay within 10 to 100 nM; on DYRK2 (setting [5]) it was 100 to 1000 nM; at DYRK3 (setting [6]), 100 to 1000 nM.
Consider `COC(=O)[C@H]1C[C@@H]2[C@H](CO1)NC(=O)N2c1nc2c3c(ccc2s1)OCC3` [Example 141], for which the IC50 on DYRK1A (setting [4]) is 10 to 100 nM; on DYRK2 (setting [5]) it was not below 1000 nM; at DYRK3 (setting [6]), not below 1000 nM.
As to `O=C1N[C@H]2CO[C@@H](CO)C[C@H]2N1c1nc2c3c(ccc2s1)OCC3` [Example 144, (3aR,6R,7aR)-1-(7,8-dihydrofuro[3,2-e][1,3]benzothiazol-2-yl)-6-(hydroxymethyl)hexahydropyrano[3,4-d]imidazol-2(3H)-one], the IC50 on DYRK1A (setting [4]) was less than 10 nM; on DYRK2 (setting [5]), not below 1000 nM; at DYRK3 (setting [6]), 100 to 1000 nM.
The like results for `O=C1N[C@@H]2C[C@H](CO)OC[C@@H]2N1c1nc2c3c(ccc2s1)OCC3` [Example 145] were, in that order, 100 to 1000 nM, not below 1000 nM and not below 1000 nM.
As to `O=C1N[C@H]2CO[C@@H](CO)C[C@H]2N1c1nc2c3c(ccc2s1)OCCO3` [Example 146, (3aR,6R, 7aR)-1-(7,8-dihydro[1,4]dioxino[2,3-e][1,3]benzothiazol-2-yl)-6-(hydroxymethyl)hexahydropyrano[3,4-d]imidazol-2(3H)-one], the IC50 on DYRK1A (setting [4]) is less than 10 nM; at DYRK2 (setting [5]) it was not below 1000 nM; at DYRK3 (setting [6]), 100 to 1000 nM.
For `O=C1N[C@H]2CO[C@@H](CO)C[C@H]2N1c1nc2c3c(ccc2s1)OCO3` [Example 147, (3aR,6R,7aR)-1-(2H-[1,3]dioxolo[4,5-e][1,3]benzothiazol-7-yl)-6-(hydroxymethyl)hexahydropyrano[3,4-d]imidazol-2(3H)-one], in that order: less than 10 nM, not below 1000 nM and 100 to 1000 nM.
